# Target: Aβ40 (amyloid β-protein, monomer) (Homo sapiens, UniProt P05067)
# Assay: […]-1H HSQC NMR titration
# Assay type: binding
# Chain of Aβ40 (amyloid β-protein, monomer) (P05067 672-711 limits assumed): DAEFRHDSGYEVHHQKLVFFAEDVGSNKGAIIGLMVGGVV
smiles,measurement,value
"COc1ccc(/C=C/C(=O)Nc2ccccc2C(=O)O)cc1OC [tranilast, N-[3,4-Dimethoxycinnamoyl]-anthranilic acid]",Kd,310 ± 130 µM
